Source: US12247033B2, “Triazole-substituted imidazo[1,2-a]pyrimidines as cGAS inhibitors” (GlaxoSmithKline Intellectual Property Development Limited, priority 2022, dated 2025)
Values after ≈ are worked out from the molar mass of the structure shown. Structures can show the parent of a compound that is named as a salt.

Key:
[1] = FaSSIF solubility (Fasted State Simulated Intestinal Fluid); type: physicochemical; conditions: thermodynamic from solid, FaSSIF pH 6.5, 4 h equilibration at room temperature, dynamic range 1-1000 μg/mL
Protocol: 1 mL of FaSSIF buffer (3 mM sodium taurocholate, 0.75 mM lecithin in sodium phosphate buffer at pH 6.5) was added to manually weighed 1 mg of the solid compound in a 4 mL vial. […] The residual solid was removed by filtration. The supernatant solution was quantified by HPLC-UV using single point calibration of a known concentration of the compound in DMSO. The dynamic range of the assay was 1-1000 μg/mL.

CGAS = CGAS whole blood cytokine release assay (384-well, BacMam stimulation, IP-10 by cytometric bead array); type: cell-based; conditions: Homo sapiens, 6 h; read-out: hWB pXC50 (converted)
Summary of the method: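 Heparinised human donor whole blood mixed with serially diluted compound plus Null BacMam stimulus, incubated 6 h at 37° C, 5% CO2. Supernatant IP-10 quantified by cytometric bead array on flow cytometer (488 nm excitation, 585/40 nm emission); inhibition of IP-10 calculated.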

human CGAS (157-522) = human CGAS (157-522) (Homo sapiens, UniProt Q8N884); assay: biochemical;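 further: biochemical enzyme reaction, 2′3′-cGAMP product measured by RapidFire mass spectrometry (MRM) normalised to c-di-UMP internal standard, inhibition of product formation relative to high and low control wells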
Protocol: Compounds were serially diluted 2, 3, or 4-fold in neat DMSO to generate 11-point dose response curves and then 250 nL compound or DMSO solution was transferred to Greiner 384-well V-bottom assay plates (Catalog #781280) using an Echo acoustic dispenser (Labcyte). A solution of 150 μM ATP, 150 μM GTP, 20 μM pppGpA (GTP-2′5′-AMP, custom synthesis from ChemGenes), and 10 μg/mL sheared salmon sperm DNA (Sigma, Catalog #D1626) in assay buffer (20 mM Trizma, pH 7.5, 10 mM magnesium chloride, 0.3 mM CHAPS, and 0.01% (w/v) bovine serum albumin) was added to columns 1-17, 19-24 of the plate at 12.5 μL/well using a Combi liquid handler (ThermoFisher). A 12.5 μL/well low control solution containing 150 μM ATP, 150 μM GTP, 20 μM pppGpA in assay buffer was added to column 18 using the Combi. A 12.5 μL/well solution of 10-100 nM human CGAS (157-522) in assay buffer was then added to all wells of the plate using the Combi. […] Reactions were quenched by added 50 μL/well of 0.5% (v/v) trifluoroacetic acid (TFA) in mass spectrometry grade deionized water containing 5 μM cyclic-di-UMP (ci-di-UMP; Invivogen Catalog #tlrl-cdu) as the internal standard (IS). Plates were centrifuged for 1 min and then quenched reactions were analyzed using a RF-MS 300 system operating in a Multiple Reaction Monitoring (MRM) detection mode.
Samples (10 μL injection volume) were passed over a silica C18/type C solid phase extraction (SPE) cartridge for analyte (2′3′-cyclic guanosine monophosphate adenosine monophosphate (2′3′-cGAMP), product of biochemical reaction)/pppGpA/c-di-UMP IS adsorption. Adsorbed samples were desalted for 3000 ms using a 100% water eluent A/desalting solution. Afterwards, desalted samples were eluted using a 0.5% TFA in 20%/80% acetonitrile/water eluent B/elution solution directly into either a Sciex 4000, 5000 or 5500 triple quadrupole mass spectrometer (QQQ-MS) for MRM analyte/IS detection. QQQ-MS detection conditions were as follow: scan type: MRM; curtain (CUR) gas: 30 psi; nebulizer (GS1) gas: 50 psi; drying (GS2) gas: 60 psi; collisionally activated dissociation (CAD) gas: 12 relative setting; precursor ion (Q1) masses: 2′3′-cGAMP: m/z 675.1 Da/pppGpA: m/z 853.0 Da/c-di-UMP: m/z 613.1 Da; fragment ion (Q3) masses: 2′3′-cGAMP: m/z 524.1 Da/pppGpA: m/z 702.0 Da/c-di-UMP: 307.1 Da; declustering potentials (DPs): 2′3′-cGAMP: +81 V/pppGpA: +85 V/c-di-UMP: +85 V; entrance potential: +10 V (all analytes); collision energies (CEs): 2′3′-cGAMP: +33 V/pppGpA: +36 V/c-di-UMP: +35 V; collision cell exit potential (CXP): +10 V (all analytes); interface heater (Sciex 4000/5000 only): on; Q1 resolution: unit (all analyte); Q3 resolution: unit (all analytes). The area under the curve (AUC) for all analytes was obtained using the RapidFire Integrator software application to calculate AUC-2′3′-cGAMP/AUC-c-di-UMP intensity ratio. Percent product formation was calculated by comparison to column 6 (high control)/column 18 (low control) responses. The % product inhibition was calculated as follows:
[formula] where A is the minimum response, B is the maximum response, C is the log10*XC50, D is the slope factor, and x is the log10 compound concentration [M] in ABASE XE.

cGAS pathway = assay: Whole blood (hWB) cytokine release assay (96-well, Bacmam stimulation, plasma IP-10 by Meso-Scale Discovery plates); type: cell-based; conditions: 6 h, Table 4, human whole blood from individual healthy donors; for IC50: Homo sapiens, read-out: hWB pXC50 (converted)
Protocol: The whole blood (hWB) cytokine release assay was performed as follows.
Human whole blood was collected from individual healthy donors into a 60 ml syringe containing sodium heparin (5 ml sodium heparin per syringe; Cat #309653, Becton-Dickinson, NJ, US). In a biosafety cabinet, 140 ul of the collected blood was transferred to each well of a 96-well flat bottom plate (Cat #167008, VWR, PA, US). The DMSO stock solution of small molecule cGAS inhibitor (10 mM stock solution) was diluted in PBS to prepare 10× solutions (3-fold dilutions) and 20 ul of the prepared 10× solutions was added to appropriate wells. Plates were shaken for 5 minutes at room temperature then incubated at 37° C. for 30 minutes. The stock solution of purified Bacmam was diluted with PBS+0.1% BSA to prepare a 4% (v/v) solution (10×). To activate the cGAS pathway, 20 uL of Bacmam was added to the blood, and the plates were shaken for 10 minutes at room temperature. PBS was added to achieve a final volume of 200 ul. Plates were then incubated at 37° C. for 6 hours.
Plates were removed from incubator and 100 uL/well PBS added. Plates were gently shaken for 10 minutes at room temperature and centrifuged (3000 rpm, 10 minutes) at room temperature. The plasma layer was removed and transferred to a separate 96-well plate and maintained at −80° C.
Plasma samples were measured for IP-10 levels using the IP-10 detection (U-plex or V-plex) plates (Cat #K151-UFK-4; Cat #K151-NVD-4; Meso-Scale Discovery, Inc.).

human CGAS (157-522), sequence (Q8N884 157-522): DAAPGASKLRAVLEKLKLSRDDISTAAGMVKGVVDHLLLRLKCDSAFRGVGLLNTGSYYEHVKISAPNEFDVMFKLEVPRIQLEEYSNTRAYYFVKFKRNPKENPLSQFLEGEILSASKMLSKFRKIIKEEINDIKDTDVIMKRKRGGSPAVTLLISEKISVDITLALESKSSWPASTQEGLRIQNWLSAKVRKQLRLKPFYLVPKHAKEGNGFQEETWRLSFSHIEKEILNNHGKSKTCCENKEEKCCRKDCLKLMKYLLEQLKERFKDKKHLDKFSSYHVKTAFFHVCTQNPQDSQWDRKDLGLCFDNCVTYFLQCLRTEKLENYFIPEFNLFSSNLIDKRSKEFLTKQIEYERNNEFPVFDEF

Row | SMILES | solubility at 4 h [1] [µg/mL] | IC50 (CGAS) [nM] | IC50 (human CGAS (157-522)) [nM] | IC50 (cGAS pathway) [nM] | hWB pXC50 (cGAS pathway)
1 | FC(F)(F)c1n[nH]c(-c2nc3ncccn3c2-c2c[nH]cn2)n1 [Example 1, 5-[3-(1H-imidazol-4-yl)imidazo[1,2-a]pyrimidin-2-yl]-3-(trifluoromethyl)-1H-1,2,4-triazole] | 4 (≈ 12.5 µM) | 158 | – | – | –
2 | O=C(O)CCC(=O)OCn1cnc(-c2c(-c3nc(C(F)(F)F)n[nH]3)nc3ncccn23)c1 [Example 23, 4-oxo-4-[(4-{2-[3-(trifluoromethyl)-1H-1,2,4-triazol-5-yl]imidazo[1,2-a]pyrimidin-3-yl}-1H-imidazol-1-yl)methoxy]butanoic acid] | 455 (≈ 1010 µM) | 794 | 251 | – | –
3 | CC(C)[C@H](N)C(=O)OCn1cnc(-c2c(-c3nc(C(F)(F)F)nn3COC(=O)[C@@H](N)C(C)C)nc3ncccn23)c1 [Example 24, (4-{2-[1-({[(2S)-2-amino-3-methylbutanoyl]oxy}methyl)-3-(trifluoromethyl)-1H-1,2,4-triazol-5-yl]imidazo[1,2-a]pyrimidin-3-yl}-1H-imidazol-1-yl)methyl (2S)-2-amino-3-methylbutanoate, 2 trifluoroacetic acid salt] | 324 | – | 63.1 | – | –
4 | CNCC(=O)OCc1cccnc1N(C)C(=O)OC(C)n1cncc1-c1c(-c2nc(C(F)(F)F)n[nH]2)nc2ncccn12 (centres unmarked) [Example 25, {2-[methyl({[1-(5-{2-[3-(trifluoromethyl)-1H-1,2,4-triazol-5-yl]imidazo[1,2-a]pyrimidin-3-yl}-1H-imidazol-1-yl)ethoxy]carbonyl})amino]pyridin-3-yl}methyl 2-(methylamino)acetate, hydrochloride salt] | > 1000 | 316 | 25.1 | – | –
5 | CNCCOC(=O)OCn1cnc(-c2c(-c3nc(C(F)(F)F)nn3COC(=O)OCCNC)nc3ncccn23)c1 [Example 27, [4-(2-{1-[({[2-(methylamino)ethoxy]carbonyl}oxy)methyl]-3-(trifluoromethyl)-1H-1,2,4-triazol-5-yl}imidazo[1,2-a]pyrimidin-3-yl)-1H-imidazol-1-yl]methyl 2-(methylamino)ethyl carbonate, 2 trifluoroacetic acid salt] | 298 | 158 | – | – | –
6 | CNCCOC(=O)OCn1nc(C(F)(F)F)nc1-c1nc2ncccn2c1-c1cnc[nH]1 [Example 28, {5-[3-(1H-imidazol-5-yl)imidazo[1,2-a]pyrimidin-2-yl]-3-(trifluoromethyl)-1H-1,2,4-triazol-1-yl}methyl 2-(methylamino)ethyl carbonate, 2 trifluoroacetic acid salt] | 208 | 316 | 3.16 | – | –
7 | O=C(CCCOP(=O)(O)O)OCn1cnc(-c2c(-c3nc(C(F)(F)F)n[nH]3)nc3ncccn23)c1 [Example 29, {4-oxo-4-[(4-{2-[3-(trifluoromethyl)-1H-1,2,4-triazol-5-yl]imidazo[1,2-a]pyrimidin-3-yl}-1H-imidazol-1-yl)methoxy]butoxy}phosphonic acid, trifluoroacetic acid salt] | > 1000 | 316 | 31.6 | – | –
8 | O=P(O)(O)OCn1nc(C(F)(F)F)nc1-c1nc2ncc(F)cn2c1-c1cnc[nH]1 [Example 34, ({5-[6-fluoro-3-(1H-imidazol-5-yl)imidazo[1,2-a]pyrimidin-2-yl]-3-(trifluoromethyl)-1H-1,2,4-triazol-1-yl}methoxy)phosphonic acid] | > 1000 | – | 794 | – | –
9 | FC(F)(F)c1n[nH]c(-c2nc3ncc(COCCC4COCCO4)cn3c2-c2c[nH]cn2)n1 (centres unmarked) [Example 145, 5-(6-{[2-(1,4-dioxan-2-yl)ethoxy]methyl}-3-(1H-imidazol-4-yl)imidazo[1,2-a]pyrimidin-2-yl)-3-(trifluoromethyl)-1H-1,2,4-triazole] | – | 1000 | 10 | – | –
10 | FC(F)(F)c1n[nH]c(-c2nc3ncc(COCCn4cccn4)cn3c2-c2c[nH]cn2)n1 [Example 146, 5-[3-(1H-imidazol-4-yl)-6-{[2-(1H-pyrazol-1-yl)ethoxy]methyl}imidazo[1,2-a]pyrimidin-2-yl]-3-(trifluoromethyl)-1H-1,2,4-triazole] | – | 2000 | 6.31 | – | –
11 | CC(=O)N1CCC(COCc2cnc3nc(-c4nc(C(F)(F)F)n[nH]4)c(-c4c[nH]cn4)n3c2)C1 (centres unmarked) [Example 149, 1-[3-({[3-(1H-imidazol-4-yl)-2-[3-(trifluoromethyl)-1H-1,2,4-triazol-5-yl]imidazo[1,2-a]pyrimidin-6-yl]methoxy}methyl)pyrrolidin-1-yl]ethan-1-one] | – | 10000 | 10 | – | –
12 | CC(C)(COCc1cnc2nc(-c3nc(C(F)(F)F)n[nH]3)c(-c3c[nH]cn3)n2c1)n1ccnc1 [Example 150, 5-(6-{[2-(1H-imidazol-1-yl)-2-methylpropoxy]methyl}-3-(1H-imidazol-4-yl)imidazo[1,2-a]pyrimidin-2-yl)-3-(trifluoromethyl)-1H-1,2,4-triazole] | – | 5010 | 5.01 | – | –
13 | CCCOc1cnc2nc(-c3nc(C(F)(F)F)n[nH]3)c(-c3cnc[nH]3)n2c1 [Example 154, 5-[3-(1H-imidazol-5-yl)-6-propoxyimidazo[1,2-a]pyrimidin-2-yl]-3-(trifluoromethyl)-1H-1,2,4-triazole] | – | 501 | 3.98 | – | –
14 | FC(F)(F)c1n[nH]c(-c2nc3ncc(COCC4CC45CCOC5)cn3c2-c2c[nH]cn2)n1 (centres unmarked) [Example 155, 5-[3-(1H-imidazol-4-yl)-6-[{{5-oxaspiro[2.4]heptan-1-yl}methoxy)methyl]imidazo[1,2-a]pyrimidin-2-yl]-3-(trifluoromethyl)-1H-1,2,4-triazole] | – | 501 | 7.94 | – | –
15 | CC1COC(COCc2cnc3nc(-c4nc(C(F)(F)F)n[nH]4)c(-c4c[nH]cn4)n3c2)C1 (centres unmarked) [Example 156, 5-[3-(1H-imidazol-4-yl)-6-{[(4-methyloxolan-2-yl)methoxy]methyl}imidazo[1,2-a]pyrimidin-2-yl]-3-(trifluoromethyl)-1H-1,2,4-triazole] | – | 631 | 10 | – | –
16 | FC(F)(F)c1n[nH]c(-c2nc3ncc(COC4CCC4)cn3c2-c2c[nH]cn2)n1 [Example 157, 5-[6-(cyclobutoxymethyl)-3-(1H-imidazol-4-yl)imidazo[1,2-a]pyrimidin-2-yl]-3-(trifluoromethyl)-1H-1,2,4-triazole] | – | 251 | 2.51 | – | –
17 | FC(F)(F)COc1cnc2nc(-c3nc(C(F)(F)F)n[nH]3)c(-c3cnc[nH]3)n2c1 [Example 160, 5-[3-(1H-imidazol-5-yl)-6-(2,2,2-trifluoroethoxy)imidazo[1,2-a]pyrimidin-2-yl]-3-(trifluoromethyl)-1H-1,2,4-triazole] | – | 398 | 5.01 | – | –
18 | FC(F)(F)c1n[nH]c(-c2nc3ncc(OC4CCOC4)cn3c2-c2cnc[nH]2)n1 (centres unmarked) [Example 161, 5-[3-(1H-imidazol-5-yl)-6-(oxolan-3-yloxy)imidazo[1,2-a]pyrimidin-2-yl]-3-(trifluoromethyl)-1H-1,2,4-triazole] | – | 251 | 5.01 | – | –
19 | FC(F)CN1CC(Oc2cnc3nc(-c4nc(C(F)(F)F)n[nH]4)c(-c4cnc[nH]4)n3c2)C1 [Example 162, 5-(6-{[1-(2,2-difluoroethyl)azetidin-3-yl]oxy}-3-(1H-imidazol-5-yl)imidazo[1,2-a]pyrimidin-2-yl)-3-(trifluoromethyl)-1H-1,2,4-triazole] | – | 1000 | 7.94 | – | –
20 | CCOc1cnc2nc(-c3nc(C(F)(F)F)n[nH]3)c(-c3cnc[nH]3)n2c1 [Example 163, 5-[6-ethoxy-3-(1H-imidazol-5-yl)imidazo[1,2-a]pyrimidin-2-yl]-3-(trifluoromethyl)-1H-1,2,4-triazole] | – | 794 | 10 | – | –
21 | COC(C)c1cnc2nc(-c3nc(C(F)(F)F)n[nH]3)c(-c3c[nH]cn3)n2c1 (centres unmarked) [Example 165, 5-[3-(1H-imidazol-4-yl)-6-(1-methoxyethyl)imidazo[1,2-a]pyrimidin-2-yl]-3-(trifluoromethyl)-1H-1,2,4-triazole] | – | 200 | 6.31 | – | –
22 | FC(F)(F)c1nnc(-c2[nH]c3c(Cl)c(Cl)ccc3c2-c2cn[nH]c2)[nH]1 [WO 2022/137085 Example 11] | – | – | – | > 31600 | 4.6
23 | Cn1c(-c2nnc(C(F)(F)F)[nH]2)c(-n2ccnc2)c2ccc(Cl)c(Cl)c21 [WO 2022/137085 Example 109] | – | – | – | > 31600 | <4.5, <4.5
